From US12150447B2, “Plant growth regulator” (University of Washington, priority 2017, dated 2024)

Legend:
[1] = target: T1, wild-type auxin receptor (TIR1) (Arabidopsis thaliana, UniProt Q570C0); experiment: Evaluation of binding to auxin receptor (yeast two-hybrid assay), wild-type receptor; details: yeast EGY48, LacZ reporter, X-gal, 30° C. for 3 days; wild type auxin receptor with AUX/IAA protein
T1 construct: expressed in transfected cells; host or cells: Saccharomyces cerevisiae strain EGY48
T1 sequence (Q570C0 1-594): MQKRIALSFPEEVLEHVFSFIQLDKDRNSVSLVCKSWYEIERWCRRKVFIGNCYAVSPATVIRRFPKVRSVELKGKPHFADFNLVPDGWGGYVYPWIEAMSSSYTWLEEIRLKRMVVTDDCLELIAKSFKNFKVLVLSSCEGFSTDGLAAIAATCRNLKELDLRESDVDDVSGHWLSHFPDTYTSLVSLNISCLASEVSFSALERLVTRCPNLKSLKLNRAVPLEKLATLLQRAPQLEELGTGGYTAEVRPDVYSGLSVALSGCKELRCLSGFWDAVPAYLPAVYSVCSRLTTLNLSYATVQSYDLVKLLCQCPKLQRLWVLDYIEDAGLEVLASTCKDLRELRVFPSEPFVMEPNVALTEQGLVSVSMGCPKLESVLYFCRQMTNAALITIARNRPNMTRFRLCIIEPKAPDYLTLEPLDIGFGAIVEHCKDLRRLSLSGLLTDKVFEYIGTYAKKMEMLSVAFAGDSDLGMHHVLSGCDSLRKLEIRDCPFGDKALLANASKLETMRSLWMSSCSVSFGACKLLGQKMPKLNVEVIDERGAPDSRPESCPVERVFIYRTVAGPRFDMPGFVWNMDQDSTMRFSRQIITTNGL
T1 sequence (Q38822 1-93 partner limits assumed): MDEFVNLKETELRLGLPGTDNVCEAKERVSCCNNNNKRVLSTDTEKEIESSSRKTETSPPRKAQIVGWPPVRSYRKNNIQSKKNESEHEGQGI
Description: (§1) Test Example 1: Evaluation of Binding to Auxin Receptor (Yeast Two-Hybrid Assay
(§2) Specifically, the inventors set up the assay in the following manner.
The transformant was cultured at 30° C. on an agar plate made of yeast growth medium (minimal SD base and -His/-Trp/-Ura dropout supplement). The colonies were picked up and incubated overnight in liquid SD/-His/-Trp/-Ura medium at 30° C. Afterwards, the medium was replaced with a liquid medium composed of minimal SD/Gal/Raf base, -His/-Trp/-Ura dropout supplement, 50 mM Na-phosphate buffer (pH 7.0), […] X-gal, and various concentrations of test compounds. After incubation at 30° C. for 3 days, the medium containing yeast was transferred to a white 96-well plate (flat bottom) and observed.
(§3) In Table 1, the concentration of “wt TIR” indicates the minimum concentration of the test compound in which the well turns blue when the wild type auxin receptor is used, whereas the concentration of “mut” indicates the minimum concentration of the test compound in which the well turns blue when the mutant auxin receptor (TIR1 F79G) is used.

[2] = target: T2, mutant auxin receptor (TIR1 F79G) (Arabidopsis thaliana, UniProt Q570C0, F79G); experiment: Evaluation of binding to auxin receptor (yeast two-hybrid assay), mutant TIR1 F79G; details: for TIR1 F79G: minimum concentration of the test compound at which the well turns blue: Table 2, repeated from Test Example 1, Table 1 for comparison; for mut TIR: minimum concentration of the test compound in which the well turns blue: yeast EGY48, LacZ reporter, X-gal, 30° C. for 3 days, TIR1 F79G with AUX/IAA protein
T2 construct: expressed in transfected cells; host or cells: Saccharomyces cerevisiae strain EGY48
Excerpt: as §1, §2
Yeast strain EGY48 was transformed into a plasmid (pSH18-34) containing a LacZ expression cassette (LexA-operon: LacZ reporter) that is transcriptionally regulated by the LexA-operon, a plasmid derived from pGLex313 containing an expression cassette of LexA-DNA-binding domain fusion protein A (the wild-type auxin receptor: SEQ ID NO. 1, or mutant auxin receptor (TIR1 F79G) where the amino acid residue 79 (phenylalanine) in the wild-type is mutated to a glycine: SEQ ID NO. 2), and a plasmid derived from pJG4-5 containing an expression cassette of B42 transcription activator fusion protein B (AUX/IAA protein: SEQ ID NO: 3). The transformant was cultured at 30° C. on an agar plate made of yeast growth medium (minimal SD base and -His/-Trp/-Ura dropout supplement). The colonies were picked up and incubated overnight in liquid SD/-His/-Trp/-Ura medium at 30° C. Afterwards, the medium was replaced with a liquid medium composed of minimal SD/Gal/Raf base, -His/-Trp/-Ura dropout supplement, 50 mM Na-phosphate buffer (pH 7.0), […] X-gal, and various concentrations of test compounds. After incubation at 30° C. for 3 days, the medium containing yeast was transferred to a white 96-well plate (flat bottom) and observed. The lower the concentration of the test compound when blue color appears, the higher the binding between the test compound and the auxin receptor (wild type or mutant) is. Conversely, higher the concentration of test compound when the blue color appears for the first time, the lower the binding between the test compound and the auxin receptor (wild type or mutant).
as §3

[3] = target: T3, mutant auxin receptor (TIR1 F79A) (Arabidopsis thaliana, UniProt Q570C0, F79A); experiment: Evaluation of binding to auxin receptor (yeast two-hybrid assay), mutant TIR1 F79A; details: yeast two-hybrid according to Test Example 1
T3 construct: expressed in transfected cells; host or cells: Saccharomyces cerevisiae strain EGY48

[4] = target: T4, mutant auxin receptor (TIR1 F79S) (Arabidopsis thaliana, UniProt Q570C0, F79S); experiment: Evaluation of binding to auxin receptor (yeast two-hybrid assay), mutant TIR1 F79S; details: yeast two-hybrid according to Test Example 1
T4 construct: expressed in transfected cells; host or cells: Saccharomyces cerevisiae strain EGY48

[5] = test system: wild-type Arabidopsis seeds; experiment: Root elongation assay (Test Example 5), wild-type seeds; assay type: in vivo; details: wild-type seeds (35S:TIR1 WT in FIG. 4), 0.1 μM
Description: (§4) FIG. 4 This is a diagram showing the results of root elongation assay in Test Example 5. On the left side of the photo, “35S:TIR1^F79G” indicates experiments using Arabidopsis seeds having an expression cassette of a mutant auxin receptor (TIR1 F79G), whereas “35S:TIR1^WT” indicates Arabidopsis seeds expressing the wild type auxin receptor (TIR1). On the upper part of the photo, “DMSO” indicates experiments where the plants are not treated with test compounds, “IAA(1) 0.1 μM” indicates experiments where auxin (indole-3-acetic acid) is used as the test compound, and “21 0.1 μM” indicates experiments where the auxin derivative synthesized in Example 30 is used as the test compound.
(§5) Arabidopsis seeds having the expression cassette of mutant auxin receptor (TIR1 F79G) (SEQ ID NO: B) or wild-type Arabidopsis seeds without said expression cassette were sterilized and stored at 4° C. in the dark for several days. The seeds were transferred to 0.5× Murashige and Skoog (MS) liquid medium and incubated for 1 day at 22° C. in the light with shaking at 140 rpm. The test compound was added to the medium at various concentrations and the seeds were further incubated for 1 week. […] If an auxin response signal has been produced in the root, root elongation will be suppressed.
(§6) Test Example 5: Evaluation of Plant Growth Regulating Action 4 (Root Elongation Assay […]

[6] = test system: Arabidopsis seeds expressing the mutant auxin receptor (TIR1 F79G); experiment: Root elongation assay (Test Example 5), TIR1 F79G seeds; assay type: in vivo; details: 35S:TIR1 F79G seeds, 0.1 μM; FIG. 4
Description: as §4, §5, §6

T2 sequence (Q570C0 whole entry F79G, one chain of several): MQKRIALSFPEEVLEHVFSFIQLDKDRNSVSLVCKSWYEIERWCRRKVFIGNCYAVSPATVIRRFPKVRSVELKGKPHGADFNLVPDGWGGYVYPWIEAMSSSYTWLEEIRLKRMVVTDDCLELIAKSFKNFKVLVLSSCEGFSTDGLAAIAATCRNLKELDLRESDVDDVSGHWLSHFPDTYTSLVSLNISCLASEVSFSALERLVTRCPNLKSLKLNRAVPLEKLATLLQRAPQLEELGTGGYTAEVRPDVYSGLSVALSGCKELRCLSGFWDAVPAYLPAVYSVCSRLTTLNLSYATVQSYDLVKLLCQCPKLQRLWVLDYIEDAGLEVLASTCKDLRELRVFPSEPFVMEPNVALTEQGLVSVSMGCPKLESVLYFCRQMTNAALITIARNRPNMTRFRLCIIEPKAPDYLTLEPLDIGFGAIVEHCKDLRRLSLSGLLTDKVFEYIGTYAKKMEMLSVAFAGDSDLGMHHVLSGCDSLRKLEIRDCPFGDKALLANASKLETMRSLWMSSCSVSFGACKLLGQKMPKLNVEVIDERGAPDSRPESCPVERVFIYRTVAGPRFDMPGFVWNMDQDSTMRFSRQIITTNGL
T4 sequence (Q570C0 whole entry F79S, one chain of several): as the sequence (Q570C0 whole entry F79G, one chain of several) above, with G79S counted along it
T3 sequence (Q570C0 whole entry F79A, one chain of several): as the sequence (Q570C0 whole entry F79G, one chain of several) above, with G79A counted along it

SMILES: O=C(O)Cc1c[nH]c2ccc(C34CC5CC(CC(C5)C3)C4)cc12 [Compound 21, 2-(5-((3r, 5r, 7r)-adamantan-1-yl)-1H-indol-3-yl)acetic acid]
- wt TIR: minimum concentration of the test compound in which the well turns blue [1]: 0.1 µM
- TIR1 F79G: minimum concentration of the test compound at which the well turns blue [2]: 0.001 µM
- mut TIR: minimum concentration of the test compound in which the well turns blue [2]: 0.001 µM
- TIR1 F79A: minimum concentration of the test compound at which the well turns blue [3]: 0.00001 µM
- TIR1 F79S: minimum concentration of test compound at which the well turns blue [4]: 0.0001 µM
- inhibition of root elongation [5]: does not inhibit root elongation
- inhibition of root elongation [6]: inhibited root elongation

SMILES: Cc1cccc(-c2ccc3c(CC(=O)O)c[nH]c3c2)c1 [MK-245, 2-(6-(m-tolyl)-1H-indol-3-yl)acetic acid]
- wt TIR: minimum concentration of the test compound in which the well turns blue [1]: 10 µM
- mut TIR: minimum concentration of the test compound in which the well turns blue [2]: 0.1 µM

SMILES: CCCCCCCOc1ccc2[nH]cc(CC(=O)O)c2c1 [MK-323, 2-(5-(heptyloxy)-1H-indol-3-yl)acetic acid]
- wt TIR: minimum concentration of the test compound in which the well turns blue [1]: 100 µM
- mut TIR: minimum concentration of the test compound in which the well turns blue [2]: 10 µM

SMILES: O=C(O)Cc1c[nH]c2ccc(C3CCCCC3)cc12 [Compound 15, 2-(5-cyclohexyl-1H-indol-3-yl)acetic acid]
- wt TIR: minimum concentration of the test compound in which the well turns blue [1]: 0.1 µM
- TIR1 F79G: minimum concentration of the test compound at which the well turns blue [2]: 0.001 µM
- mut TIR: minimum concentration of the test compound in which the well turns blue [2]: 0.001 µM
- TIR1 F79A: minimum concentration of the test compound at which the well turns blue [3]: 0.0001 µM
- TIR1 F79S: minimum concentration of test compound at which the well turns blue [4]: 0.001 µM

SMILES: Cc1cc(-c2ccc3[nH]cc(CC(=O)O)c3c2)ccc1F [MK-213, 2-(5-(4-fluoro-3-methylphenyl)-1H-indol-3-yl)acetic acid]
- wt TIR: minimum concentration of the test compound in which the well turns blue [1]: 10 µM
- mut TIR: minimum concentration of the test compound in which the well turns blue [2]: 0.1 µM

SMILES: COc1ccccc1-c1ccc2[nH]cc(CC(=O)O)c2c1 [Example 27A, 5-(2-methoxyphenyl)-indole-3-acetic acid]
- wt TIR: minimum concentration of the test compound in which the well turns blue [1]: 100 µM
- mut TIR: minimum concentration of the test compound in which the well turns blue [2]: 10 µM

SMILES: O=C(O)Cc1c[nH]c2ccc(-c3ccc4c(c3)OCO4)cc12 [MK-209, 2-(5-(benzo[d][1,3]dioxol-5-yl)-1H-indol-3-yl) acetic acid]
- wt TIR: minimum concentration of the test compound in which the well turns blue [1]: 10 µM
- mut TIR: minimum concentration of the test compound in which the well turns blue [2]: 0.1 µM

SMILES: O=C(O)Cc1c[nH]c2ccc(-c3ccc(F)c(Cl)c3)cc12 [MK-255, 2-(5-(3-chloro-4-fluorophenyl)-1H-indol-3-yl)acetic acid]
- wt TIR: minimum concentration of the test compound in which the well turns blue [1]: 100 µM
- mut TIR: minimum concentration of the test compound in which the well turns blue [2]: 1 µM
